Assay results taken from patent US20240174690A1, “ANNULATED 2-AMINO-3-CYANO THIOPHENES AND DERIVATIVES FOR THE TREATMENT OF CANCER” (BOEHRINGER INGELHEIM INTERNATIONAL GMBH, priority 2021, published 2024).

Test system: Caco-2 cell monolayers
Experiment: Caco-2 assay (permeability PappAB, PappBA, efflux ratio)
Format: in vitro ADME
Conditions: 10 μM test compound, pH 7.4
In short: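 Confluent Caco-2 monolayers on filter supports, 0.25% BSA in both donor and receiver buffer; transport measured a-b and b-a. After 25-30 min preincubation at 37 °C, samples at 0, 30, 60, 90 min quantified by HPLC/MS/MS. Papp from receiver amount per time, filter area and initial donor concentration; efflux ratio = PappBA/PappAB.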

## C[C@H](Oc1cc(-n2ccc(C(=O)N[C@H]3CCOC3)n2)nc(-c2noc3c2CCC[C@@]32CCCc3sc(N)c(C#N)c32)n1)[C@@H]1CCCN1C [II-193]
Apical to basolateral
  Caco PappAB: 3.7 ×10⁻⁶ cm/s
Efflux ratio PappBA/PappAB
  Caco ER: 8.1
